Consider 1 compound from paper PMC3774728, “Identification of the Plant Compound Geraniin as a Novel Hsp90 Inhibitor” (PLoS ONE, 2013).

One assay has as its target T1, Hsp90α ATPase activity (Homo sapiens, UniProt P07900).
T1 construct: purchased Assay Designs (Ann Arbor, MI, USA)
As to the kind of experiment: ATP hydrolysis inhibition (ADP Hunter Plus assay). It is filed as biochemical. As to conditions: 40 nM Hsp90α, 100 µM ATP, 60 min, 40°C. The procedure:
The assay was performed using the Discover RX ADP HunterTM Plus Assay kit, following the manufacturer’s instructions. ATPase reactions were carried out for 60 min at 40°C temperature in 100 mM Tris pH 7.4, 100 µM ATP and 40 nM Hsp90α in the presence of different concentrations of geraniin or 17-AAG. ADP generation was measured using a Perkin Elmer LS 55 fluorimeter (540 nm excitation and 620 nm emission). Fluorescence intensity values measured for Hsp90α without any compound were set at 100% of enzyme activity. The background reaction rate was measured in a reaction lacking enzyme or substrate and subtracted from the experimental rates.
(§1) Figure 3 Inhibition of Hsp90α activity. ATPase activity of the chaperone was evaluated in the presence of different concentrations of geraniin, 17-AAG and HA (A). Data are reported as the residual ATPase activity (%) compared to that observed for an untreated sample. Data are the mean of three independent experiments performed in triplicate and were analyzed by t test (HA vs testing compounds): The error bar represents the standard deviation of nine measurements, while * indicates significance at P<0.01. Aggregation kinetics of citrate synthase (CS) at 43°C determined by light scattering (B). […]

The target of assay [1] is T2, Hsp90α chaperone activity (Homo sapiens, UniProt P07900).
T2 construct: purchased Assay Designs (Ann Arbor, MI, USA)
As to the kind of experiment: Citrate synthase thermal-induced aggregation assay (chaperone activity). The following applies: 0.075 µM CS, 0.075 µM Hsp90α, 0.3 µM ATP, four-fold molar excess (0.3 µM) compound, 43°C. It is filed as biochemical. The protocol: Chaperone activity was evaluated by monitoring the thermal−induced aggregation of citrate synthase (CS) (0.075 µM), as reported elsewhere, in the absence or presence of a stoichiometric amount of Hsp90α and 0.3 µM ATP, and with or without a four−fold molar excess of each testing compound. Aggregation was initiated by unfolding CS incubating the protein in 40 mM HEPES–KOH, pH 7.5 at 43°C. Aggregation was monitored by measuring light scattering at right angles with the Perkin Elmer LS 55 fluorimeter in stirred and thermostatted quartz cells. Both the emission and excitation wavelengths were set at 500 nm, while the band–pass was 2 nm. Kinetics traces reported are the averages of two separate measurements.
as §1

The target of a further assay is T3, recombinant Hsp90α (Homo sapiens, UniProt P07900).
T3 construct: purchased Assay Designs (Ann Arbor, MI, USA)
As to the kind of experiment: Limited proteolysis-mass spectrometry of Hsp90α/geraniin complex. The following applies: trypsin or chymotrypsin, 5:1 molar excess of geraniin, 37°C. The procedure:
Limited proteolysis experiments were performed on recombinant Hsp90α at 37°C, PBS 0.1% DMSO, using trypsin or chymotrypsin as proteolytic agents; 30 µL of a 3 µM Hsp90α solution were used for each experiment. Binary complex Hsp90α/geraniin was formed by incubating the protein with a 5∶1 molar excess of geraniin at 37°C for 15 min prior to proteolytic enzyme addition. Both Hsp90 and Hsp90/geraniin complex were digested using a 1∶100 (w/w) enzyme to substrate ratio. The extent of the reactions was monitored on a time−course basis by sampling the incubation mixture after 5, 15, and 30 min of digestion. Samples were analyzed by MALDITOF/MS using a MALDI micro MX (Waters). Mass data were elaborated using the Masslynx software (Waters). Preferential hydrolysis sites on Hsp90α under different conditions were identified on the basis of the fragments released during enzymatic digestion.
In an effort to identify the Hsp90α region involved in geraniin binding, a limited proteolysis−mass spectrometry−based strategy was used for the structural analysis of the Hsp90α/geraniin complex. This approach is based on the evidence that exposed, weakly structured, and flexible regions of a protein can be recognized by a proteolytic enzyme, [30]. […]

For another assay, the system named is Jurkat cells. As to the kind of experiment: MTT cell viability, Jurkat. The format is cell-based, human. As to conditions: Homo sapiens, 24 h. The protocol:
To ensure logarithmic growth, cells were subcultured every two days. As control cells, human peripheral blood mononuclear cells (PBMC) were isolated from buffy coats of healthy donors (kindly provided by the Blood Center of the Hospital of Battipaglia, Salerno, Italy) by using standard Ficoll−Hypaque gradients. […] Proliferation of PBMC was induced by phytohemagglutinin (PHA) (10 µg mL^−1). Tumor and PBMC cells were treated with different concentrations of geraniin or 17-AAG to evaluate their cytotoxic effects. Stock solutions of geraniin (50 mM in DMSO) and 17-AAG (10 mM in DMSO) were stored a −20°C in the dark and diluted just before addition to the sterile culture medium. In all the experiments, the final concentration of DMSO was 0.10% (v/v).
Jurkat (2×10^4/well) and HeLa (5000/well) cells were seeded in triplicate in 96 well−plates and incubated for 24 h in the absence or presence of different concentrations of geraniin (between 0,5 µM to 50 µM) or 17-AAG (between 0,5 nM to 10 µM).
The number of viable cells was determined by using a [3–4,5-dimethyldiazol-2-yl]-2,5-diphenyl tetrazolium bromide (MTT, Sigma-Aldrich) conversion assay, according to the method described by Mosmann. […] The absorbance was measured with a microplate reader (Titertek multiskan MCC7340, LabSystems, Vienna, VA, USA) equipped with a 620 nm filter. […]

Turning to `O=C1O[C@H]2[C@@H]3OC(=O)c4cc(O)c(O)c(O)c4-c4c(cc(O)c(O)c4O)C(=O)OC[C@H]2O[C@@H](OC(=O)c2cc(O)c(O)c(O)c2)[C@@H]3OC(=O)c2cc(O)c(O)c3c2[C@@H]2C1=CC(=O)[C@](O)(O3)C2(O)O` [Compound 54, geraniin], the “Hsp90α ATPase activity inhibition” value on Hsp90α ATPase activity is listed as “inhibit Hsp90α ATPase activity in a dose−dependent manner”. Moreover, in assay [1], the “effect on citrate synthase aggregation kinetics in the presence of Hsp90α” value was “the curve slope clearly increased”. Moreover, on recombinant Hsp90α, the “Hsp90α region involved in binding” value is “overall protection of the N−terminal region from proteolysis”. In the assay with Jurkat cells, the IC50 (as a rule, the concentration at which inhibition is half-maximal) was found to be 760 ± 100 nM.
